Source: patent publication US20030013660A1, “Dioxolane analogs for improved inter-cellular delivery” (Shire BioChem Inc., priority 2000, published 2003)
Where two headings read alike, the source gives them in different places.

Tests used:
Assay in all cases: 3H-TdR (3H-thymidine) incorporation assay at 72 hr
[1] = tested on: H-460; format: cell-based, Human
[2] = tested on: MCF-7; format: cell-based, Human
[3] = tested on: SF-268; format: cell-based, Human
[4] = tested on: CCRF-CEM; format: cell-based
Method: (§1) Table of IC50 Values (μM) for Controls
(§2) Exposition of 24 hr to drug, wash, incubated for another 48 hr (total of 72 hr assay)
(§3) (3H-Thymidine Incorporation Assay)

[5] = tested on: CEM/dCK-; format: cell-based; conditions: for Factor* (Resistance Factor = Ratio of dCK- on Wild-type CCRF-CEM): ratio of IC50 CEM/dCK- to CCRF-CEM, 24 h
Method: as §1, §2, §3

[6] = Homo sapiens, NCI-H460, read-out: IC50 H-460 24 h, 24 h drug exposure, wash, another 48 hr, 3H-TdR incorporation at 72 hr
[7] = Homo sapiens, MCF7, read-out: IC50 MCF-7 24 h, 24 h drug exposure, wash, another 48 hr, 3H-TdR incorporation at 72 hr
[8] = Homo sapiens, SF-268, read-out: IC50 SF-268 24 h, 24 h drug exposure, wash, another 48 hr, 3H-TdR incorporation at 72 hr
[9] = Homo sapiens, CCRF-CEM, read-out: IC50 CCRF-CEM 24 h, 24 h drug exposure, wash, another 48 hr, 3H-TdR incorporation at 72 hr
[10] = Homo sapiens, CCRF-CEM, read-out: IC50 CEM/dCK- 24 h, 24 h drug exposure, wash, another 48 hr, deoxycytidine kinase-deficient CCRF-CEM
[11] = read-out: IC50 H-460 24 h, 24 h drug exposure, wash, another 48 hr, 3H-TdR incorporation at 72 hr
[12] = read-out: IC50 SF-268 24 h, 24 h drug exposure, wash, another 48 hr, 3H-TdR incorporation at 72 hr
[13] = read-out: IC50 CCRF-CEM 24 h, 24 h drug exposure, wash, another 48 hr, 3H-TdR incorporation at 72 hr
[14] = Homo sapiens, NCI-H460, read-out: IC50 H-460 24 h
[15] = Homo sapiens, MCF7, read-out: IC50 MCF-7 24 h
[16] = Homo sapiens, SF-268, read-out: IC50 SF-268 24 h
[17] = Homo sapiens, CCRF-CEM, read-out: IC50 CCRF-CEM 24 h
[18] = Homo sapiens, CCRF-CEM, read-out: IC50 CEM/dCK- 24 h

Compound | IC50 [1, 6] | IC50 [2, 7] | IC50 [3, 8] | IC50 [4, 9] | IC50 [5, 10] | IC50 [1, 11] | IC50 [3, 12] | IC50 [4, 13] | IC50 ([5]; read-out: IC50 CEM/dCK- 24 h, 24 h drug exposure, wash, another 48 hr, deoxycytidine kinase-deficient CCRF-CEM) | Factor* (Resistance Factor = Ratio of dCK- on Wild-type CCRF-CEM) [5] | IC50 ([1]; read-out: IC50 H-460 24 h, 24 h drug exposure, wash, another 48 hr, 3H-TdR incorporation at 72 hr, bis trifluoroacetate salt) | IC50 ([2]; read-out: IC50 MCF-7 24 h, 24 h drug exposure, wash, another 48 hr, 3H-TdR incorporation at 72 hr, bis trifluoroacetate salt) | IC50 [1, 14] | IC50 [2, 15] | IC50 [3, 16] | IC50 [4, 17] | IC50 [5, 18]
Nc1ccn([C@@H]2CO[C@H](COC(=O)CCCCCNCc3ccccc3)O2)c(=O)n1.O=C(O)C(F)(F)F.O=C(O)C(F)(F)F (stereo in doubt) [Compound 83, 6-Benzylamino-hexanoic acid 4-(4-amino-2-oxo-2H-pyrimidin-1-yl)-[1,3]dioxolan-2-ylmethyl ester bis trifluoroacetate salt] | – | – | 260 nM | 22 nM | > 100000 nM | – | – | – | – | 4,545 | 54 nM | 83 nM | – | – | – | – | –
CC(=O)OCC1OC2OC(C)(OC[C@H]3OC[C@@H](n4ccc(NC(=O)OCc5ccccc5)nc4=O)O3)OC2C(OC(C)=O)C1OC(C)=O (stereo in doubt) [Compound 148, Acetic acid 6-acetoxy-5-acetoxymethyl-2-[4-(4-benzyloxycarbonylamino-2-oxo-2H-pyrimidin-1-yl)-[1,3]dioxolan-2-ylmethoxy]-2-methyl-tetrahydro-[1,3]dioxolo[4,5-b]pyran-7-yl ester] | 36000 nM | 6300 nM | 9900 nM | 6300 nM | 24000 nM | – | – | – | – | 4 | – | – | – | – | – | – | –
CC(=O)OCC1OC2OC(C)(OC[C@H]3OC[C@@H](n4ccc(N)nc4=O)O3)OC2C(OC(C)=O)C1OC(C)=O (stereo in doubt) [Compound 151, Acetic acid 6-acetoxy-5-acetoxymethyl-2-[4-(4-amino-2-oxo-2H-pyrimidin-1-yl)-[1,3]dioxolan-2-ylmethoxy]-2-methyl-tetrahydro-[1,3]dioxolo [4,5-b]pyran-7-yl ester] | 9700 nM | 8300 nM | 4400 nM | 590 nM | > 100000 nM | – | – | – | – | >169 | – | – | – | – | – | – | –
COC(OC)OC[C@H]1OC[C@@H](n2ccc(N)nc2=O)O1 [Compound 38, 4-AMINO-1-(2- DIMETHOXYMETHOXYMETHYL- [1,3]DIOXOLAN-4-YL)-1H- PYRIMIDIN-2-ONE] | 340 nM | 1000 nM | 900 nM | 110 nM | > 100000 nM | – | – | – | – | 909 | – | – | – | – | – | – | –
CCOC(OCC)OC[C@H]1OC[C@@H](n2ccc(N)nc2=O)O1 [Compound 39, 4-AMINO-1-(2- DIETHOXYMETHOXYMETHYL- [1,3]DIOXOLAN-4-YL)-1H- PYRIMIDIN-2-ONE] | 160 nM | – | 320 nM | 47 nM | > 100000 nM | 120 nM | 390 nM | 62 nM | – | – | – | – | – | – | – | – | –
O=C(Nc1ccn([C@@H]2CO[C@H](COC(=O)Oc3ccccc3)O2)c(=O)n1)Oc1ccccc1 [Compound 43] | – | – | – | – | – | – | – | – | – | 1,000,000 | – | – | 10 nM | 4.1 nM | 29 nM | < 0.1 nM | > 100000 nM
O=C(Nc1ccn([C@@H]2CO[C@H](CO)O2)c(=O)n1)Oc1ccccc1 [Compound 44, [1-(2-HYDROXYMETHYL- [1,3]DIOXOLAN-4-YL)-2- OXO-1,2-DIHYDRO- […]-4-YL]- CARBAMIC ACID PHENYL ESTER] | – | – | – | – | – | – | – | – | – | 1,300 | – | – | 370 nM | 970 nM | 890 nM | 77 nM | > 100000 nM
CC(C)OC(=O)OC[C@H]1OC[C@@H](n2ccc(N)nc2=O)O1.O=C(O)C(F)(F)F [Compound 67, CARBONIC ACID 4-(4- AMINO-2-OXO-2H- PYRIMIDIN-1-YL)- [1,3]DIOXOLAN-2- YLMETHYL ESTER ISOPROPYL ESTER TRIFLUOROACETATE SALT] | 82 nM | – | 400 nM | 180 nM | > 100000 nM | – | – | – | – | 556 | – | – | – | – | – | – | –

More lines, main results first:

IC50 [1, 6] | IC50 [2, 7] | IC50 [3, 8] | IC50 [4, 9] | IC50 [5, 10] | IC50 [1, 11] | IC50 [3, 12] | IC50 [4, 13] | IC50 ([5]; read-out: IC50 CEM/dCK- 24 h, 24 h drug exposure, wash, another 48 hr, deoxycytidine kinase-deficient CCRF-CEM) | Compound | Factor* (Resistance Factor = Ratio of dCK- on Wild-type CCRF-CEM) [5] | IC50 ([1]; read-out: IC50 H-460 24 h, 24 h drug exposure, wash, another 48 hr, 3H-TdR incorporation at 72 hr, bis trifluoroacetate salt) | IC50 ([2]; read-out: IC50 MCF-7 24 h, 24 h drug exposure, wash, another 48 hr, 3H-TdR incorporation at 72 hr, bis trifluoroacetate salt) | IC50 [1, 14] | IC50 [2, 15] | IC50 [3, 16] | IC50 [4, 17] | IC50 [5, 18]
460 nM | 460 nM | 680 nM | 180 nM | 89000 nM | – | – | – | – | CCC(C)(C)OC(C)OC[C@H]1OC[C@@H](n2ccc(N)nc2=O)O1 (mixture of isomers) [Compound 117, 4-AMINO-1-{2-[1-(1,1- DIMETHYL-PROPOXY)- ETHOXYMETHYL]- [1,3]DIOXOLAN-4-YL}-1H- PYRIMIDIN-2-ONE] | 494 | – | – | – | – | – | – | –
40000 nM | 91000 nM | > 100000 nM | 21000 nM | > 100000 nM | – | – | – | – | Nc1ccn([C@@H]2CO[C@H](COC3CCCCO3)O2)c(=O)n1 (stereo in doubt) [Compound 41, 4-AMINO-1-[2- (TETRAHYDRO-PYRAN-2- YLOXYMETHYL)- [1,3]DIOXOLAN-4-YL]-1H- PYRIMIDIN-2-ONE] | 5 | – | – | – | – | – | – | –
8900 nM | 10000 nM | 10000 nM | 2000 nM | 37000 nM | – | – | – | – | Nc1cc[n+]([C@@H]2CO[C@H](COC(c3ccccc3)(c3ccccc3)c3ccccc3)O2)c(=O)[nH]1 (stereo in doubt) [Compound 53, 4-AMINO-1-(2- TRITYLOXYMETHYL- [1,3]DIOXOLAN-4-YL)-1H- PYRIMIDIN-2-ONE] | 19 | – | – | – | – | – | – | –
7000 nM | 2000 nM | 25000 nM | 1600 nM | > 100000 nM | – | – | – | – | Nc1ccn([C@@H]2COC(COCOCc3ccccc3)O2)c(=O)n1 (stereo in doubt) [Compound 56, 4-AMINO-1-(2- BENZYLOXYMETHOXYMETHYL- [1,3]DIOXOLAN-4-YL)-1H- PYRIMIDIN-2-ONE] | 63 | – | – | – | – | – | – | –
630 nM | 1800 nM | 5500 nM | 2800 nM | > 100000 nM | – | – | – | – | CCOC(C)OC[C@H]1OC[C@@H](n2ccc(N)nc2=O)O1 (stereo in doubt) [Compound 91, 4-AMINO-1-[2-(1-ETHOXY- ETHOXYMETHYL)- [1,3]DIOXOLAN-4-YL]-1H- PYRIMIDIN-2-ONE] | 36 | – | – | – | – | – | – | –
630 nM | 40 nM | 3700 nM | 94 nM | 58000 nM | – | – | – | – | CC(CCCCN(Cc1ccccc1)C(=O)OC(C)(C)C)C(=O)Nc1ccn([C@@H]2CO[C@H](CO)O2)c(=O)n1 (stereo in doubt) [Compound 158, Benzyl-{5-[1-(2-hydroxymethyl-[1,3]dioxolan-4-yl)-2-oxo-1,2-dihydro-pyrimidin-4-ylcarbamoyl]-hexyl}-carbamic acid tert-butyl ester] | 617 | – | – | – | – | – | – | –
320 nM | 70 nM | 900 nM | 89 nM | > 100000 nM | – | – | – | – | Nc1ccn([C@@H]2CO[C@H](COC3OCCO3)O2)c(=O)n1 [Compound 40, 4-AMINO-1-[2- ([1,3]DIOXOLAN-2- YLOXYMETHYL)- [1,3]DIOXOLAN-4-YL]-1H- PYRIMIDIN-2-ONE] | 1,123 | – | – | – | – | – | – | –
10 nM | – | 22 nM | 2.2 nM | 82000 nM | 7 nM | 26 nM | 2.3 nM | > 100000 nM | Nc1ccn([C@@H]2CO[C@H](COC(=O)Oc3ccccc3)O2)c(=O)n1 [Compound 42, CARBONIC ACID 4-(4- AMINO-2-OXO-2H- PYRIMIDIN-1-YL)- [1,3]DIOXOLAN-2- YLMETHYL ESTER PHENYL ESTER] | – | – | – | – | – | – | – | –
3200 nM | 2700 nM | 9000 nM | 1600 nM | > 100000 nM | – | – | – | – | CCOC(=O)Nc1ccn([C@@H]2CO[C@H](CO)O2)c(=O)n1 [Compound 45, [1-(2-HYDROXYMETHYL- [1,3]DIOXOLAN-4-YL)-2- OXO-1,2-DIHYDRO- PYRIMIDIN-4-YL]- CARBAMIC ACID ETHYL ESTER] | 63 | – | – | – | – | – | – | –
86 nM | 160 nM | 560 nM | 60 nM | > 100000 nM | – | – | – | – | CCOC(=O)OC[C@H]1OC[C@@H](n2ccc(N)nc2=O)O1 [Compound 46, CARBONIC ACID 4-(4- AMINO-2-OXO-2H- PYRIMIDIN-1-YL)- [1,3]DIOXOLAN-2- YLMETHYL ESTER ETHYL ESTER] | 1,667 | – | – | – | – | – | – | –
– | 19 nM | 47 nM | 4.8 nM | 32000 nM | – | – | – | – | Nc1ccn([C@@H]2CO[C@H](COC(=O)OCc3ccccc3)O2)c(=O)n1 [Compound 57, CARBONIC ACID 4-(4- AMINO-2-OXO-2H- PYRIMIDIN-1-YL)- [1,3]DIOXOLAN-2- YLMETHYL ESTER BENZYL ESTER] | – | – | – | – | – | – | – | –
